These results are taken from patent publication US7166570B2, “Medical implants and fibrosis-inducing agents” (Angiotech International AG, priority 2003, dated 2007).

Test in all cases: MIC determination by microtitre broth dilution
Holding throughout (type): cell-based
A general note: Broth dilution looks for growth in wells or tubes with falling amounts of substance.

The test system of test [1] is K. pneumoniae ATCC13883 C238 wt. The conditions noted are these: Gram−, Mueller Hinton broth, 37° C., 24 h, aerobic, N = No activity. The procedure:
(§1) MIC assays were conducted essentially as described by Amsterdam, D. 1996, “Susceptibility testing of antimicrobials in liquid media,” p. 52–111. In Loman, V., ed. Antibiotics in laboratory medicine, 4th ed. Williams and Wilkins, Baltimore, Md.

Another test has as its system E. coli UB1005 C498 wt. The note with it: Gram−, Mueller Hinton broth, 37° C., 24 h, aerobic, N = No activity. As to the method: as §1
Test [2] has as its system S. aureus ATCC25923 C622 wt. The conditions noted are these: Gram+, Mueller Hinton broth, 37° C., 24 h, aerobic, N = No activity. The procedure: as §1
The subject of test [3] is P. aeruginosa PAE/K799 H187 Wt. The conditions noted are these: Gram−, Mueller Hinton broth, 37° C., 24 h, aerobic, N = No activity. As to the method: as §1
The test system of a further test is S. epidermidis C621 wt. The conditions noted are these: Gram+, Mueller Hinton broth, 37° C., 24 h, aerobic, N = No activity. The procedure:
as §1

A further test deals with S. pyogenes C721 wt. The note with it: Gram+, Todd Hewitt broth, 37° C., 24 h, aerobic, N = No activity. The procedure: as §1

In the case of `O=C1c2c(O)ccc(O)c2C(=O)c2c(NCCNCCO)ccc(NCCNCCO)c21` [mitoxantrone], the “Minimum inhibitory concentration (MIC)” value in test [1] is given as 10^−6 Molar; in the test with E. coli UB1005 C498 wt, 10^−5 Molar; in test [2], 10^−5 Molar; in test [3], 10^−5 Molar; with S. epidermidis C621 wt, 10^−5 Molar; with S. pyogenes C721 wt, 10^−6 Molar.
Take `CN(Cc1cnc2nc(N)nc(N)c2n1)c1ccc(C(=O)N[C@@H](CCC(=O)O)C(=O)O)cc1` [Methotrexate]: the “Minimum inhibitory concentration (MIC)” value in test [1] is 10^−6 Molar; in the test with E. coli UB1005 C498 wt, “N”; in test [2], 10^−5 Molar; in test [3], “N”; in the test on S. epidermidis C621 wt, “N”; with S. pyogenes C721 wt it was 10^−6 Molar.
For the molecule `COc1cccc2c1C(=O)c1c(O)c3c(c(O)c1C2=O)C[C@@](O)(C(=O)CO)C[C@@H]3O[C@H]1C[C@H](N)[C@H](O)[C@H](C)O1` [Doxorubicin], the “Minimum inhibitory concentration (MIC)” value in test [1] was 10^−6 Molar; in the test with E. coli UB1005 C498 wt, 10^−4 Molar; in test [2], 10^−5 Molar; in test [3], 10^−5 Molar; with S. epidermidis C621 wt, 10^−6 Molar; in the test with S. pyogenes C721 wt, 10^−7 Molar.
Turning to `Nc1ncnc2c1ccn2[C@@H]1O[C@H](CO)[C@@H](O)[C@H]1O` [tubercidin], the “Minimum inhibitory concentration (MIC)” value (in test [1]; in the test on E. coli UB1005 C498 wt; in test [2]; in test [3]; in the test on S. epidermidis C621 wt; in the test on S. pyogenes C721 wt) was “N” each time.
In the case of `COc1cc([C@@H]2c3cc4c(cc3[C@@H](O[C@@H]3O[C@@H]5CO[C@@H](C)O[C@H]5[C@H](O)[C@H]3O)[C@H]3COC(=O)[C@H]23)OCO4)cc(OC)c1O` [etoposide], the “Minimum inhibitory concentration (MIC)” value in test [1] is 10^−5 Molar; in the test with E. coli UB1005 C498 wt it was “N”; in test [2], 10^−5 Molar; in test [3], “N”; with S. epidermidis C621 wt it was 10^−6 Molar; in the test with S. pyogenes C721 wt, 10^−5 Molar.
Take `Sc1ncc2[nH]cnc2n1` [2-mercaptopurine]: the “Minimum inhibitory concentration (MIC)” value (in test [1]; in the test on E. coli UB1005 C498 wt; in test [2]; in test [3]; in the test on S. epidermidis C621 wt; with S. pyogenes C721 wt) was “N” in each case.
Consider `NC(=O)NO` [hydroxyurea], for which the “Minimum inhibitory concentration (MIC)” value is reported as “N” in test [1]; “N” with E. coli UB1005 C498 wt; “N” in test [2]; 10^−4 Molar in test [3]; “N” in the test with S. epidermidis C621 wt; 10^−4 Molar in the test on S. pyogenes C721 wt.
`Sc1ncnc2nc[nH]c12` [6-mercaptopurine]: the “Minimum inhibitory concentration (MIC)” value (in test [1]; with E. coli UB1005 C498 wt; in test [2]; in test [3]; in the test on S. epidermidis C621 wt; with S. pyogenes C721 wt) was “N” in each case.
With `CC[C@@]1(O)C(=O)OCc2c1cc1n(c2=O)Cc2cc3ccccc3nc2-1` [Camptothecin], the “Minimum inhibitory concentration (MIC)” value was “N” in test [1]; “N” in the test with E. coli UB1005 C498 wt; “N” in test [2]; “N” in test [3]; 10^−4 Molar in the test on S. epidermidis C621 wt; “N” with S. pyogenes C721 wt.
As to `Nc1ccn([C@@H]2O[C@H](CO)[C@@H](O)[C@@H]2O)c(=O)n1` [Cytarabine], the “Minimum inhibitory concentration (MIC)” value (in test [1]; in the test on E. coli UB1005 C498 wt; in test [2]; in test [3]; in the test on S. epidermidis C621 wt; with S. pyogenes C721 wt) was “N” each time.
For the molecule `O=c1[nH]cc(F)c(=O)[nH]1` [5-Fluorouracil], the “Minimum inhibitory concentration (MIC)” value is listed as 10^−6 Molar in test [1]; 10^−6 Molar in the test with E. coli UB1005 C498 wt; 10^−7 Molar in test [2]; 10^−5 Molar in test [3]; 10^−7 Molar in the test with S. epidermidis C621 wt; 10^−4 Molar in the test with S. pyogenes C721 wt.
